Measurements published in patent publication US4996225A, “Tri-phenyl alkane derivatives and their oestrogenic, anti-oestrogenic and progestanic uses” (Farmos Group Ltd., priority 1982, dated 1991).

Legend:
oestrogen receptors = molecular target: T1, oestrogen receptors (Rattus norvegicus, UniProt P06211); test: affinity for oestrogen receptors, competition with 3H-17-β-estradiol in rat uterus cytosol (dextran-charcoal method); type: binding; conditions: read-out: Estrogen receptor affinity (concentration of compound where 50% competition (inhibition) with 3H-estradiol occurred)
T1 construct: rat uterus cytosol preparation; from tissue; host or cells: rat uterus cytosol
T1 sequence (P06211 1-600): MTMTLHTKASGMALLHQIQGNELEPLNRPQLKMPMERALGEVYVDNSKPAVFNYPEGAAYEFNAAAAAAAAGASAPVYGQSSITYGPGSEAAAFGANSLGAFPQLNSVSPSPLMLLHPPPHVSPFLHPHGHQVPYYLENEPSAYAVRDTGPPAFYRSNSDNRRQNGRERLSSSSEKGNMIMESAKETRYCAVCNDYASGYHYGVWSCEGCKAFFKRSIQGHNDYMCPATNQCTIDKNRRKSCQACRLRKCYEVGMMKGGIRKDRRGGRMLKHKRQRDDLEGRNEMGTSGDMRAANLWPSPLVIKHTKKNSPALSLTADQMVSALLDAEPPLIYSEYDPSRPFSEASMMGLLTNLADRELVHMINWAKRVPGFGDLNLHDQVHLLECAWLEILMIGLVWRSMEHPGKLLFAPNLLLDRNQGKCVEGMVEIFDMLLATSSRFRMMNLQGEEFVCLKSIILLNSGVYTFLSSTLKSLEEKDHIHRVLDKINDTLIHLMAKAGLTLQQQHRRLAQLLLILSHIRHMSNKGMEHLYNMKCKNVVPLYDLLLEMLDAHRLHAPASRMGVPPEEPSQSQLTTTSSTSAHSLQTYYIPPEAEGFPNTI
Method: The affinity of the new compounds for oestrogen receptors was determined by the ability to compete with ^3 H-labelled 17-β-estradiol in rat uterus cytosol preparation. After incubation, receptor-bound and receptor-unbound ligands were separated by a known dextrancharcoal method.

immature mouse uterus [1] = test: oestrogenic effect, uterus weight of immature mice; type: in vivo; conditions: for estrogenic effect of their own (in words): up to 5 mg/kg
Method: (§1) The oestrogen-antiestrogen (progesterone) effect of the new compounds in vivo was determined as follows: (1) The oestrogenic properties were determined by administering the new compounds, suspended in sesame oil, subcutaneously to 21 days old immature mice on three consecutive days. The mice were killed on the fourth day and the uterus was weighed. […] The weight correlates with the oestrogenic effect of the compound tested. […] In this case, the ability of the molecules to inhibit oestrogen-induced uterus weight increase was also investigated.

[2] = tested on: MCF-7 cell line (human mammary adenocarcinoma); test: anti-tumour effect in vitro, growth of MCF-7 cell line (bioluminescence assay, intracellular ATP); type: cell-based; conditions: read-out: Antitumour effect against MCF-7 cell line (IC50 = concentration of compound where 50% inhibition of cell growth could be seen)
Method: The anti-tumour effect was studied in vitro as follows:
The amount of living cells after 4 h, 24 h and 48 h incubations were determined by bioluminescence assay (intracellular ATP determination).
inhibition of cell growth could be seen.

[3] = tested on: estradiol induced weight increase in immature mouse uterus; test: antiestrogenic effect, inhibition of oestrogen-induced uterus weight increase in immature mice; type: in vivo; conditions: for inhibition of estradiol-induced uterus weight increase / inhibition of estradiol-induced uterus weight increase (in words): estradiol 5 μg/kg; for effect with estradiol (in words) / reduction in the weights of mice uterus, with estradiol: with estradiol 0.05 mg/kg
Method: as §1

[4] = tested on: DMBA-induced rat mammary adenocarcinomas; test: antitumour effect in vivo against DMBA-induced rat mammary adenocarcinoma; conditions: for amount of new tumours (in words) / growth rate of the tumours (in words): rat, in vivo
Method: The anti-tumour effect was investigated in vivo against DMBA-induced rat mammary adenocarcinomas, transplantable mammary and ovarial adenocarcinoma and transplantable prostatic squamous cell carcinoma by the following methods:
Mammary adenocarcinomas were induced by DMBA in 35-40 days old female rats. […] Tumour size and numbers of tumours were evaluated twice a week. Tumour sizes in the control group, treated with solvent, were compared with the test groups.
The size refers to the width×height of the tumour. The growth rate is a difference between sizes compared with that of the first day of the treatment.

immature mouse uterus [5] = test: progestanic effect, uterus weight of immature mice (alone or with medroxyprogesterone acetate); type: in vivo; parameters: reduction in the weight of a mouse uterus, given alone / reduction in the weight of uterus with medroxyprogesterone / reduction in the weights of mice uterus, given alone: concentration or dose not given beside the values
[6] = with medroxyprogesterone 0.06 mg/kg

Compound	IC50 (oestrogen receptors) [µM]	IC50 [2] [µM]	increase in uterus weight (immature mouse uterus [1]; 5 mg/kg)	inhibition of estradiol-induced uterus weight increase ([3]; 5 mg/kg)	growth rate of the tumours (in words) [4]	other results
OCC[C@H](c1ccccc1)[C@@](O)(c1ccccc1)c1ccc(O)cc1 (relative stereo) [Compound 1, 1,2-diphenyl-1-(4-hydroxyphenyl)-butane-1,4-diol]	1 to 10	–	–	–	–	–
CN(C)CCOc1ccc([C@@]2(c3ccccc3)OCC[C@@H]2c2ccccc2)cc1 (relative stereo) [Compound 16, 2,3-diphenyl-2-[4-[2-(N,N-dimethylamino)-ethoxy]phenyl]-tetrahydrofuran]	10 to 100	5 to 10	–	–	–	estrogenic effect of their own (in words) (immature mouse uterus [1]): no estrogenic effect of their own
CN(C)CCOc1ccc([C@](O)(c2ccccc2)[C@H](CCO)c2ccccc2)cc1 (relative stereo) [Compound 17, 1,2-diphenyl-1-[4-[2-(N,N-dimethylamino)-ethoxy]phenyl]butane-1,4-diol]	10 to 100	–	–	–	–	estrogenic effect of their own (in words) (immature mouse uterus [1]): no estrogenic effect of their own
ClCC[C@@H](c1ccccc1)[C@H](c1ccccc1)c1ccc(OCCN2CCCC2)cc1 (relative stereo) [Compound 27, 4-chloro-1,2-diphenyl-1-[4-[2-(1-pyrrolidinyl)-ethoxy]phenyl]-butane]	–	1 to 5	≤ 55%	less than 33%	the growth rate of the tumours decreased	amount of new tumours (in words) [4]: the amount of new tumours decreased
ClCC[C@H](c1ccccc1)[C@H](c1ccccc1)c1ccc(OCCN2CCCC2)cc1 (relative stereo) [Compound 28, 4-chloro-1,2-diphenyl-1-[4-[2-(1-pyrrolidinyl)-ethoxy]phenyl]-butane]	–	5 to 10	≤ 55%	68-100%	the growth rate of the tumours decreased	amount of new tumours (in words) [4]: the amount of new tumours decreased
OCCC/C(=C(/c1ccccc1)c1ccc(O)cc1)c1ccccc1 [6, (E)-isomer]	–	5 to 10	–	–	–	–
COc1ccc(C(=C(CCO)c2ccccc2)c2ccccc2)cc1 [Compound 3, 1,2-diphenyl-1-(4-methoxyphenyl)-1-buten-4-ol]	1 to 10	–	–	–	–	–
OCCCC(=C(c1ccccc1)c1ccc(O)cc1)c1ccccc1 [Compound 6, 1,2-diphenyl-1-(4-hydroxyphenyl)-1-penten-5-ol]	0.1 to 10	–	–	–	–	–
OCCC(c1ccc(O)cc1)C(O)(c1ccccc1)c1ccc(O)cc1 (stereo not shown) [Compound 8, 1-phenyl-1,2-bis(4-hydroxyphenyl)-butane-1,4-diol]	1 to 10	–	–	–	–	–
Oc1ccc(C2CCOC2(c2ccccc2)c2ccc(O)cc2)cc1 (stereo not shown) [Compound 9, 2-phenyl-2,3-bis(4-hydroxyphenyl)-tetrahydrofuran]	0.1 to 1	–	–	–	–	effect given alone: estrogenic (in words) (immature mouse uterus [1]): estrogenic; increase in the weights of mice uterus, given alone (immature mouse uterus [1]): 50%; effect with estradiol (in words) [3]: not anti-; reduction in the weights of mice uterus, with estradiol [3]: < 10%
OCC/C(=C(/c1ccccc1)c1ccc(O)cc1)c1ccccc1 [Compound 10, 1,2-diphenyl-1-(4-hydroxypheny)-1-buten-4-ol]	0.1 to 1	–	–	–	–	–
OCC/C(=C(\c1ccccc1)c1ccc(O)cc1)c1ccccc1 [Compound 11, 1,2-diphenyl-1-(4-hydroxyphenyl)-1-buten-4-ol]	1 to 10	–	–	–	–	estrogenic effect of their own (in words) (immature mouse uterus [1]): no estrogenic effect of their own; inhibition of estradiol induced effect in mouse uterus ([3]; 5 mg/kg): 31%; effect given alone: antiestrogenic (in words) ([3]; given alone): anti-; anti-estrogenic effect (in words) ([3]; immature mouse uterus): possessed anti-estrogenic effects; effect with estradiol (in words) [3]: anti-; reduction in the weights of mice uterus, with estradiol [3]: 31%; reduction in the weight of a mouse uterus, given alone (immature mouse uterus [5]; given alone): 56%; reduction in the weights of mice uterus, given alone (immature mouse uterus [5]; given alone, Table 2A): 56%; interaction with medroxyprogesterone (in words) (immature mouse uterus [5]; with medroxyprogesterone): synergistic effect with medroxyprogesterone; effect with medroxyprogesterone (in words) (immature mouse uterus [5]; [6]): no inhibition; reduction in the weights of mice uterus with medroxyprogesterone, compared to control (immature mouse uterus [5]; [6]): 40%
CN(C)CCOc1ccc(/C(=C(\CCO)c2ccccc2)c2ccccc2)cc1 [Compound 12, 1,2-diphenyl-1-[4-[2-(N,N-dimethylamino)-ethoxy]phenyl]-1-buten-4-ol]	10 to 100	1 to 5	–	–	–	antitumour effect against DMBA-induced mammary cancer (in words) ([4]; compared with compound 7): Antitumour effect less than that of compound 7
CN(C)CCOc1ccc(/C(=C(\CCCl)c2ccccc2)c2ccccc2)cc1 [Compound 18, 4-chloro-1,2-diphenyl-1-[4-[2-(N,N-dimethylamino)ethoxy]phenyl]-1-butene]	–	1 to 5	–	–	–	effect given alone: estrogenic (in words) (immature mouse uterus [1]): estrogenic; increase in the weights of mice uterus, given alone (immature mouse uterus [1]): 20%; effect with estradiol (in words) [3]: not anti-; reduction in the weights of mice uterus, with estradiol [3]: < 10%; effect with medroxyprogesterone (in words) (immature mouse uterus [5]; [6]): no effect
CC(=O)OCC/C(=C(\c1ccccc1)c1ccc(OCCN(C)C)cc1)c1ccccc1 [Compound 19]	–	1 to 5	≤ 30%	–	only the growth rate of the tumours was reduced	inhibition of estradiol-induced uterus weight increase (in words) ([3]; 5 mg/kg): did not inhibit
CN(C)CCOc1ccc(/C(=C(/CCO)c2ccccc2)c2ccccc2)cc1 [Compound 20, 1,2-diphenyl-1-[4-[2-(N,N-dimethylamino)ethoxy]phenyl]-1-buten-4-ol]	–	–	less than 30%	less than 33%	only the growth rate of the tumours was reduced	increase in uterus weight (in words) (immature mouse uterus [1]; 5 mg/kg): statistically significant increase in uterus weight; inhibition of estradiol-induced uterus weight increase (in words) ([3]; 5 mg/kg): inhibited the uterus weight increase in a statistically significant manner
CCN(CC)CCOc1ccc(/C(=C(/CCCl)c2ccccc2)c2ccccc2)cc1 [Compound 24, 4-chloro-1,2-diphenyl-1-[4-[2-(N,N-diethylamino)ethoxy]phenyl]-1-butene]	–	1 to 5	≤ 55%	less than 67%	only the growth rate of the tumours was reduced	–
ClCC/C(=C(\c1ccccc1)c1ccc(OCCN2CCCC2)cc1)c1ccccc1 [Compound 25, 4-chloro-1,2-diphenyl-1-[4-[2-(1-pyrrolidinyl)-ethoxy]phenyl]-1-butene]	–	< 5	≤ 55%	68-100%	the growth rate of the tumours decreased	amount of new tumours (in words) [4]: the amount of new tumours decreased
ClCC/C(=C(/c1ccccc1)c1ccc(OCCN2CCCC2)cc1)c1ccccc1 [Compound 26, 4-chloro-1,2-diphenyl-1-[4-[2-(1-pyrrolidinyl)-ethoxy]phenyl]-1-butene]	–	1 to 5	≤ 30%	less than 33%	only the growth rate of the tumours was reduced	–
CC(=O)O[C@]1(C(C)=O)CC[C@H]2[C@@H]3C[C@H](C)C4=CC(=O)CC[C@]4(C)[C@H]3CC[C@@]21C [Medroxyprogesterone acetate, reference compound]	–	–	–	–	–	inhibition in the weight of immature mouse uterus (immature mouse uterus [5]; positive control): up to 40%
